How the values were obtained:
sucrase = assay: Sucrase activity of rat small intestinal mucosal enzyme solution after AAPH oxidation; format: biochemical
Description: One milliliter of the above rat small intestinal mucosal enzyme solution, one milliliter of a 100 mM AAPH solution, one milliliter of a 50 mM phosphate buffer (pH 7.2), and one milliliter of a 400 mM of the crystalline cyclotetrasaccharide pentahydrate prepared in Experiment 1-1 were mixed, incubated at 37° C. for two hours, and measured for the activities of sucrase and maltase.
After incubated at 37° C. for 30 min, the mixture was quantified for free glucose by the GOD method.

maltase = assay: Maltase activity of rat small intestinal mucosal enzyme solution after AAPH oxidation; format: biochemical
Description: One milliliter of the above rat small intestinal mucosal enzyme solution, one milliliter of a 100 mM AAPH solution, one milliliter of a 50 mM phosphate buffer (pH 7.2), and one milliliter of a 400 mM of the crystalline cyclotetrasaccharide pentahydrate prepared in Experiment 1-1 were mixed, incubated at 37° C. for two hours, and measured for the activities of sucrase and maltase. […] To a half milliliter of a maltose solution, which had been prepared by dissolving maltose in 50 mM sodium maleate (pH 6.6) to give a concentration of one percent (%), 0.05 ml of a AAPH-rat small intestinal mucosal enzyme solution. After incubated at 37° C. for 30 min, the mixture was quantified for free glucose by the GOD method. One unit (U) activity of maltase was defined as an enzyme amount that releases two micromoles of glucose per minutes from maltose at 37° C.

[1] = Modification of L-lysine by lipid peroxides (protein carbonyl, OLAARPs); settings: for OLAARPs Formation: (%) / Protein carbonyl Formation: (%): L-lysine, versus no saccharide; for Formed OLAARPs / Formed Protein carbonyl: 37° C., 24 hours
Description: (§1) In this experiment, saccharide solutions were prepared to give an equal total saccharide molar concentration in each solution.
(§2) As a negative control, PBS was used.
(§3) To five milliliters of either of the above saccharide solutions for testing or the negative control was added 10 mg of calf serum albumin (BSA) or L-lysine, followed by dissolving. To each of the resulting solutions was added 25 μg of 2,4-decadienal or malondialdehyde (MDA) as a lipid peroxide, followed by reaction at 37° C. for 24 hours. After completion of the reaction, protein carbonyl and reaction products of oxidized lipids/aminoacids (OLAARPs) formed as aldehyde adducts were quantified on the calorimetric method. […] The formation levels of protein carbonyl and OLAARPs were determined based on the absorbances obtained in this experiment, in terms of the molar absorbance coefficient for each molecule as disclosed in Biochim. Biophys. Acta, No. 1,258, pp. 319-327 (1985).
To each of the resulting mixtures was added 600 μl of 30% trichloroacetic acid, and the mixture was allowed to stand at 0° C. for one hour and centrifuged at 10,000 rpm for 15 min to obtain a precipitate, followed by washing the resulting precipitate four times with two milliliters of ethanol/ethylacetate (1:1), respectively, adding 1.5 ml of 6M-guanidine hydrochloride/20 mM-NaPi/TFA (pH 2.3) to the resultant, allowing the mixture to stand at 37° C. for 30 min, and measuring the absorbance of the resulting mixture at a wavelength of 580 nm, ε=35,000 M^−1 cm^−1. […] To any one of the resulting mixtures was added two milliliters of a 12.5 mM DNPH/2.5 N-hydrochloride solution, and the resulting mixture was allowed to stand at 45° C. for 30 min, followed by measuring the absorbance of the resulting mixture at a wavelength of 580 nm, E=35,000 M^−1 cm^−1.

calf serum albumin (BSA) = assay: Modification of BSA by lipid peroxides (protein carbonyl, OLAARPs); format: biochemical; settings: for OLAARPs Formation: (%) / Protein carbonyl Formation: (%): BSA, versus no saccharide; for Formed OLAARPs / Formed Protein carbonyl: 37° C., 24 hours
Description: as §1, §2
as §3, with “Biophys.” for “Biophys. Acta, No. 1,258, pp. 319-327 (1985).”
To each of the resulting mixtures was added 600 μl of 30% trichloroacetic acid, and the mixture was allowed to stand at 0° C. for one hour and centrifuged at 10,000 rpm for 15 min to obtain a precipitate, followed by washing the resulting precipitate four times with two milliliters of ethanol/ethylacetate (1:1), respectively, adding 1.5 ml of 6M-guanidine hydrochloride/20 mM-NaPi/TFA (pH 2.3) to the resultant, allowing the mixture to stand at 37° C. for 30 min, and measuring the absorbance of the resulting mixture at a wavelength of 580 nm, ε=35,000 M^−1 cm^−1.

[2] = enzyme solution incubated with AAPH at 37° C. for two hours, with or without cyclotetrasaccharide
[3] = versus system with no AAPH, 37° C., two hours
[4] = added lipid peroxide 2,4-decadienal
[5] = added lipid peroxide malondialdehyde (MDA)

SMILES | Sucrase activity (sucrase; [2]) [u/mg-protein] | Sucrase Relative residual activity (%) (sucrase; [3]) | Maltase activity (maltase; [2]) [u/mg-protein] | Maltase Relative residual activity (%) (maltase; [3]) | OLAARPs Formation: (%) ([1]; 2,4-decadienal) | Protein carbonyl Formation: (%) ([1]; 2,4-decadienal) | OLAARPs Formation: (%) ([1]; MDA) | Protein carbonyl Formation: (%) ([1]; MDA) | Formed OLAARPs [1, 4] [μmol/g-L-lysine] | Formed Protein carbonyl [1, 4] [μmol/g-L-lysine] | Formed OLAARPs [1, 5] [μmol/g-L-lysine] | Formed Protein carbonyl [1, 5] [μmol/g-L-lysine] | OLAARPs Formation: (%) (calf serum albumin (BSA); 2,4-decadienal) | Protein carbonyl Formation: (%) (calf serum albumin (BSA); 2,4-decadienal) | OLAARPs Formation: (%) (calf serum albumin (BSA); MDA) | Protein carbonyl Formation: (%) (calf serum albumin (BSA); MDA) | Formed OLAARPs (calf serum albumin (BSA); [4]) [μmol/g-BSA] | Formed Protein carbonyl (calf serum albumin (BSA); [4]) [μmol/g-BSA] | Formed OLAARPs (calf serum albumin (BSA); [5]) [μmol/g-BSA] | Formed Protein carbonyl (calf serum albumin (BSA); [5]) [μmol/g-BSA]
CC(C)(N=NC(C)(C)C(=N)N)C(=N)N.Cl.Cl [AAPH, 2,2′-azo-bis(2-amidinopropane)dihydrochloride, reference compound] | 0.0042 | (29) % | 0.0555 | (71) % |  |  |  |  |  |  |  |  |  |  |  |  |  |  |  | 
OC[C@@H](O)[C@@H](O[C@H]1O[C@H](CO)[C@@H](O)[C@H](O)[C@H]1O)[C@H](O)[C@@H](O)CO [Maltitol, maltitol] |  |  |  |  | (73) % | (51) % | (84) % | (55) % | 5.90 | 6.81 | 7.23 | 3.29 | (67) % | (53) % | (48) % | (53) % | 2.83 | 7.51 | 2.78 | 1.29
OC[C@H]1O[C@@](CO)(O[C@H]2O[C@H](CO)[C@@H](O)[C@H](O)[C@H]2O)[C@@H](O)[C@@H]1O [Sucrose, sucrose] |  |  |  |  | (93) % | (81) % | (94) % | (96) % | 7.54 | 10.92 | 8.13 | 5.75 |  |  |  |  |  |  |  | 

From patent US20050267067A1, “Radical reaction inhibitors, method for inhibition of radical reactions, and use thereof” (priority 2002, published 2005)
